Assay results: ChEMBL document CHEMBL1201862, “PubChem BioAssay data set” (2004)
Where “and” joins values, the source holds several entries; their conditions need not be identical. Equal values may be shown once.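 Method: 48-hour compound exposure of cells in 96-well plates, five concentrations, linear interpolation of endpoints. Here, GI50 denotes the concentration required for 50% inhibition of growth.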 Calls of active or inactive are those of the source. Rule as the data show it: active = GI50 up to about 1.1 µM and inactive = higher.

Tests used:
Test in all cases: inhibition of tumour cell growth, NCI panel, 48 h
U-251 = tested on: U-251
HCT-15 = tested on: HCT-15
HCT-116 = tested on: HCT-116
NCI-H460 = tested on: NCI-H460
ACHN = tested on: ACHN
A549 = tested on: A549
RPMI-8226 = tested on: RPMI-8226
Malme-3M = tested on: Malme-3M
K562 = tested on: K562
SW-620 = tested on: SW-620
OVCAR-3 = tested on: OVCAR-3
COLO 205 = tested on: COLO 205
OVCAR-8 = tested on: OVCAR-8
SK-MEL-2 = tested on: SK-MEL-2
786-0 = tested on: 786-0
NCI/ADR-RES = tested on: NCI/ADR-RES
MDA-MB-231 = tested on: MDA-MB-231
PC-3 = tested on: PC-3

Compound | GI50 (U-251) | GI50 (HCT-15) [µM] | GI50 (HCT-116) | GI50 (NCI-H460) | GI50 (ACHN) | GI50 (A549) | GI50 (RPMI-8226) | GI50 (Malme-3M) | GI50 (K562) | GI50 (SW-620) | GI50 (OVCAR-3) | GI50 (COLO 205) | GI50 (OVCAR-8) | GI50 (SK-MEL-2) | GI50 (786-0) | GI50 (NCI/ADR-RES) | GI50 (MDA-MB-231) | GI50 (PC-3)
[N-]=[N+]=Nc1ccc(CCN2CCN(c3cccc(C(F)(F)F)c3)CC2)cc1I | > 100 µM (inactive) | 25.2 | 71.1 µM (inactive) | 62.4 µM (inactive) | > 100 µM (inactive) | 95.7 µM (inactive) | 13 µM (inactive) | > 100 µM (inactive) | 52.6 µM (inactive) | 70.3 µM (inactive) | 78.9 µM (inactive) | > 100 µM (inactive) | > 100 µM (inactive) | 38.4 µM (inactive) | > 100 µM (inactive) |  |  | 
CN(C(=O)c1ccc2c(c1)sc1c(=O)n(C)c3ccccc3c12)c1ccccc1 | 50 µM (inactive) | > 100 | > 100 µM (inactive) | > 100 µM (inactive) | 33.7 µM (inactive) | > 100 µM (inactive) |  | > 100 µM (inactive) | > 100 µM (inactive) | > 100 µM (inactive) | > 100 µM (inactive) | > 100 µM (inactive) | > 100 µM (inactive) | > 100 µM (inactive) | 59.7 µM (inactive) | > 100 µM (inactive) | > 100 µM (inactive) | > 100 µM (inactive)
COCCN(CCOC)C(=O)COc1c2cc(C(C)(C)C)cc1Cc1cc(C(C)(C)C)cc(c1OCC(=O)N(CCOC)CCOC)Cc1cc(C(C)(C)C)cc(c1OCC(=O)N(CCOC)CCOC)Cc1cc(C(C)(C)C)cc(c1OCC(=O)N(CCOC)CCOC)Cc1cc(C(C)(C)C)cc(c1OCC(=O)N(CCOC)CCOC)C2 | 0.53 µM (active) | 2.81 | 0.618 µM (active) | 1.12 µM (inactive) | 0.817 µM (active) | 0.802 µM (active) |  | 1.85 µM (inactive) | 0.491 µM (active) | 0.877 µM (active) | 0.288 µM (active) | 0.562 µM (active) | 1.39 µM (inactive) | 1.02 µM (active) | 2.15 µM (inactive) | 10.7 µM (inactive) | 1.99 µM (inactive) | 0.659 µM (active)
COc1ccc(N[C@H](CSc2ccc(C)cc2)c2ccc(F)cc2)cc1 | > 100 µM (inactive) | 65.5 | 45.8 µM (inactive) | > 100 µM (inactive) | > 100 µM (inactive) | 74.6 µM (inactive) | 23.9 µM (inactive) |  | 52 µM (inactive) | > 100 µM (inactive) | > 100 µM (inactive) | > 100 µM (inactive) | > 100 µM (inactive) | > 100 µM (inactive) | > 100 µM (inactive) | > 100 µM (inactive) | > 100 µM (inactive) | > 100 µM (inactive)
CCOC(=O)C1=C(Nc2ccc(Br)cc2)OC/C1=N\NC(=O)c1ccccc1O | 9.23 µM (inactive) | 11.7 | 10.1 µM (inactive) | 12.9 µM (inactive) | 5.13 µM (inactive) | 4.06 µM (inactive) | 15 µM (inactive) | 35.4 µM (inactive) | 7.06 µM (inactive) | 23 µM (inactive) | 21.4 µM (inactive) | 38.9 µM (inactive) | 13.1 µM (inactive) | 15.1 µM (inactive) | 15 µM (inactive) |  |  | 
CC1OC(OC2C(OC(=O)[C@]34CCC(C)(C)C[C@H]3C3=CC[C@@H]5[C@@]6(C)CC[C@H](OC7OC(C(=O)O)C(O)C(O)C7O)C(C)(C)[C@@H]6CC[C@@]5(C)[C@]3(C)CC4)OCC(O)C2O)C(O)C(O)C1OC1OCC(O)C(O)C1O (some centres undefined) | 39.3 µM (inactive) and 75.2 µM (inactive) | > 100 | 39.9 µM (inactive) and 45.9 µM (inactive) | > 100 µM (inactive) |  | 35.2 µM (inactive) and 30.6 µM (inactive) |  | 34.7 µM (inactive) and 28.3 µM (inactive) |  |  | > 100 µM (inactive) | 16.7 µM (inactive) and 17.3 µM (inactive) | > 100 µM (inactive) | 19.4 µM (inactive) and 33.1 µM (inactive) | 49.3 µM (inactive) and 65.5 µM (inactive) | 93.5 µM (inactive) | 11 µM (inactive) and 21.5 µM (inactive) | 
